From patent US8304448B2, “Method for the treatment of metabolic disorder containing benzazole derivatives as an active ingredient” (Korea Research Institute of Bioscience and Biotechnology, priority 2006, dated 2012)

How the values were obtained:
[1] = system: DGAT; test: Assay for inhibitory activity against DGAT ([14C]triacylglycerol formation, rat microsomal protein); assay type: biochemical; conditions: rat microsomal protein as enzyme source
From the text: The derivatives of Chemical Formula 1 in accordance with the present invention are found to inhibit the enzymatic activity of DGAT at a dose-dependent manner (refer to Table 2 and FIG. 1) as measured in a test in which [^14C]triacylglycerol was quantitatively analyzed after enzymatic reaction between 1,2-diacylglycerol and [^14C]palmitoyl-CoA, with microsomal proteins from rats serving as an enzyme source (refer to Example 1).
After enzymatic reaction between two substrates 1,2-diacylglycerol (Sigma, D0138) and [^14C]palmitoyl-CoA (Amersham, CFA583) with the microsomal protein of rat serving as an enzyme source in accordance with Coleman et al, Methods Enzymol., 98-103, 1992, the resulting product [^14C] triacylglycerol was measured for radioactivity. In detail, to a reaction buffer (175 mM Tris-HCl, pH 8.0, 20 μl bovine serum albumin (10 mg/ml), 100 mM MgCl2, 30 μM [^14C] palmitoyl-CoA (0.02 μCi, Amersham) and 200 μM 1,2-dioleoyl glycerol) was added 10 μl of a solution of the samples in dimethylsulfoxide (DMSO) and then 100˜200 μl of an isolated microsomal protein, followed by reaction at 25° C. for 10 min. The reaction was terminated with 1.5 ml of a mixture of 80:20:2 2-propanol:heptane:water (v:v:v). Thereafter, the [^14C] triacylglycerol thus formed was separated. In this regard, 1 ml of heptane and 0.5 ml of distilled water were added to the reaction mixture, which was then shaken. 1 ml of the supernatant thus formed was mixed with 2 ml of an alkaline ethanol solution (ethanol:0.5 N sodium hydroxide:water=50:10:40, v:v:v), followed by shaking. After being taken, 0.65 ml of the supernatant thus formed was measured for radioactivity using an LSC (liquid scintillation counter). The inhibitory activity against DGAT was calculated according to the following Mathematical Formula 1. The inhibitory effects of the benzazole derivatives on DGAT are summarized in Table 2, below while % DGAT inhibition is plotted against doses of compound 22 and 31 in FIG. 1.
T: Cpm of a test group in which a sample was added to an enzymatic buffer,
C: Cpm of a control in which no samples were added to an enzymatic buffer,
B: Cpm of a control in which a sample was added in the absence of any enzyme source.

[2] = system: ICR mice fed a high-fat diet; test: In vivo assay for anti-obesity activity in mice fed a high-fat diet; design: species or system mouse; conditions: high-fat diet
Description: Also, the derivatives of Chemical Formula 1 were tested for resistance to obesity by iterative oral administration at a dose of 10 mg/kg into ICR male mice (refer to Example 3). […] When they were administered, the levels of total triglycerides, total cholesterols, and low density lipoprotein (LDL)-cholesterol in the blood recovered to almost normal levels, with a significant increase observed in the level of high density lipoprotein (HDL)-cholesterol in the blood (refer to Tables 6 and 7 and FIGS. 3 and 4).
In order to verify the anti-obesity activity of the benzaldehyde derivatives of Chemical Formula 1 in accordance with the present invention, Compounds 22 and 31 were administered repetitively into rodents as follows.
The experimental animals were 6 week old ICR mice which were purchased from Japan SLC, Inc. via Central Lab. Animal Inc. Korea. They were acclimated to a new environment for one week before use, and fed with a foodstuff commercially available from Deyts, U.S.A. They were bred in an animal lab set at a temperature of 23±3° C. and RH 50±10% under light of 150˜300 Lux for a period of 12 hours (6 a.m.˜6 p.m.) with ventilation 10-20 times/hour. All of the 12 mice used were male, and were organized into two groups of 6. The test group was orally administered once a day at 4 p.m. with 10 mg/kg of the compound (Chemical Formula 1) in the form of a solution in biological saline for 35 days while the control was administered with biological saline only. Xenical, a commercially available lipase inhibitor, was administered orally at a dose of 10 mg/kg once a day as a positive control drug.
The animals were measured for body weight every week and sacrificed on Day 35, after which blood from the heart was sampled. Abdominal fat, epididymal fat, retroperitoneal fat and the liver were excised and weighed. Blood samples were assayed for total triglyceride, total cholesterol, HDL-cholesterol and LDL-cholesterol using respective test kits, all commercially available from Asan Pharmaceutical Co. Ltd., Korea.
For evidence of anti-obesity activity, compounds 22 and 31 were orally administered at regular intervals at a dose of 10 mg/kg into ICR male mice for a predetermined period of time with the concurrent provision of conditional diets thereto. Anatomized abdomens of the animals are given in the photographs of FIG. 2.

[3] = Day 35, 10 mg/kg oral, Mean ± SD
[4] = blood, Day 35, 10 mg/kg oral, Mean ± SD

| SMILES | DGAT (% inhibition in 25 μM) [1] [%] | also measured |
| --- | --- | --- |
| COC(=O)c1ccc2oc(COc3ccc(Cl)cc3Cl)nc2c1 [Cpd. 1, 2-(2,4-dichloro-phenoxymethyl)-benzoxazole-5-carboxylic acid methyl ester] | −2.64 | – |
| COC(=O)c1ccc2oc(COc3ccc(C45CC6CC(CC(C6)C4)C5)cc3)nc2c1 [Cpd. 2, 2-(4-adamantan-1-yl-phenoxymethyl)-benzoxazole-5-carboxylic acid methyl ester] | −25.72 | – |
| COC(=O)c1ccc2nc(COc3ccc(C45CC6CC(CC(C6)C4)C5)cc3)oc2c1 [Cpd. 3, 2-(4-adamantan-1-yl-phenoxymethyl)-benzoxazole-6-carboxylic acid methyl ester] | −5.34 | – |
| CCCCCCCCCCC[C@@H](C[C@@H]1OC(=O)[C@H]1CCCCCC)OC(=O)[C@H](CC(C)C)NC=O [Xenical, reference compound] | – | (Tissue Weight/Body Weight) × 100 Abdominal Fat + Epididymal Fat [2, 3]: 2.45 ± 1.03; (Tissue Weight/Body Weight) × 100 Liver [2, 3]: 4.31 ± 0.76; (Tissue Weight/Body Weight) × 100 Retroperitoneal Fat [2, 3]: 0.75 ± 0.50; (Tissue Weight/Body Weight) × 100 Total Fat [2, 3]: 3.20 ± 1.52; HDL-Cholesterol [2, 4]: 30.28 ± 1.52 mg/dL; LDL-Cholesterol [2, 4]: 20.45 ± 8.99 mg/dL; Total Cholesterol [2, 4]: 53.75 ± 12.35 mg/dL; Total Triglyceride [2, 4]: 40.77 ± 6.06 mg/dL; inhibition of body weight gain ([2]; 10 mg/kg oral once a day for 35 days): 88%; Body Weight (g) (Mean ± SD) Week 0 ([2]; 10 mg/kg oral once a day, Week 0): 26.30 ± 1.45 g; Body Weight (g) (Mean ± SD) Week 1 ([2]; 10 mg/kg oral once a day, Week 1): 33.63 ± 1.28 g; Body Weight (g) (Mean ± SD) Week 2 ([2]; 10 mg/kg oral once a day, Week 2): 37.41 ± 2.02 g; Body Weight (g) (Mean ± SD) Week 3 ([2]; 10 mg/kg oral once a day, Week 3): 39.11 ± 0.90 g; Body Weight (g) (Mean ± SD) Week 4 ([2]; 10 mg/kg oral once a day, Week 4): 39.95 ± 1.26 g; Body Weight (g) (Mean ± SD) Week 5 ([2]; 10 mg/kg oral once a day, Week 5): 41.24 ± 1.60 g |
| COC(=O)c1ccc2nc(COc3ccc(Cl)cc3Cl)oc2c1 [compound 5, 2-(2,4-dichloro-phenoxymethyl)-benzoxazole-6-carboxylic acid methyl ester] | 1.98 | – |
| COC(=O)c1ccc2[nH]c(COc3ccc(Cl)cc3Cl)nc2c1 [compound 6, 2-(2,4-dichloro-phenoxymethyl)-1H-benzoimidazole-5-carboxylic acid methyl ester] | 0.63 | – |
| COC(=O)c1ccc2nc(COc3ccc(C(C)(C)C)cc3C(C)(C)C)oc2c1 [compound 7, 2-(2,4-tert-butyl-phenoxymethyl)-benzoxazole-6-carboxylic acid methyl ester] | 34.5 | – |
| COC(=O)c1ccc2[nH]c(COc3ccc([N+](=O)[O-])cc3)nc2c1 [compound 9, 2-(4-nitro-phenoxymethyl)-1H-benzoimidazole-5-carboxylic acid methyl ester] | 0.61 | DGAT (% inhibition in 5 μM) [1]: −5.6% |
| O=C(O)c1ccc2oc(COc3ccc(Cl)cc3Cl)nc2c1 [compound 11, 2-(2,4-dichloro-phenoxymethyl)-benzoxazole-5-carboxylic acid] | −16.48 | – |
| O=C(O)c1ccc2oc(COc3ccc(C45CC6CC(CC(C6)C4)C5)cc3)nc2c1 [compound 12, 2-(4-adamantan-1-yl-phenoxymethyl)-benzoxazole-5-carboxylic acid] | −10.43 | – |
| O=C(O)c1ccc2nc(COc3ccc(C45CC6CC(CC(C6)C4)C5)cc3)oc2c1 [compound 13, 2-(4-adamantan-1-yl-phenoxymethyl)-benzoxazole-6-carboxylic acid] | −18.53 | – |
| O=C(O)c1ccc2[nH]c(COc3ccc(C45CC6CC(CC(C6)C4)C5)cc3)nc2c1 [compound 14, 2-(4-adamantan-1-yl-phenoxymethyl)-1H-benzoimidazole-5-carboxylic acid] | −13.17 | – |
| O=C(O)c1ccc2nc(COc3ccc(Cl)cc3Cl)oc2c1 [compound 15, 2-(2,4-dichloro-phenoxymethyl)-benzoxazole-6-carboxylic acid] | −13.03 | – |
| O=C(O)c1ccc2[nH]c(COc3ccc(Cl)cc3Cl)nc2c1 [compound 16, 2-(2,4-dichloro-phenoxymethyl)-1H-benzoimidazole-5-carboxylic acid] | −7.37 | – |
| CC(C)(C)c1ccc(OCc2nc3ccc(C(=O)O)cc3o2)cc1 [compound 17, 2-(4-tert-butyl-phenoxymethyl)-benzoxazole-6-carboxylic acid] | −29.81 | – |
| CC(C)(C)c1ccc(OCc2nc3cc(C(=O)O)ccc3[nH]2)cc1 [compound 18, 2-(4-tert-butyl-phenoxymethyl)-1H-benzoimidazole-5-carboxylic acid] | −13.05 | – |
| O=C(O)c1ccc2[nH]c(COc3ccc([N+](=O)[O-])cc3)nc2c1 [compound 19, 2-(4-nitro-phenoxymethyl)-1H-benzoimidazole-5-carboxylic acid] | −5.86 | DGAT (% inhibition in 5 μM) [1]: 2.0% |
| CN(C)C(=O)c1ccc2oc(COc3ccc(C45CC6CC(CC(C6)C4)C5)cc3)nc2c1 [compound 21, 2-(4-adamantan-1-yl-phenoxymethyl)-benzoxazole-5-carboxylic acid dimethylamide] | 10.49 | – |
| CN(C)CCNC(=O)c1ccc2oc(COc3ccc(C45CC6CC(CC(C6)C4)C5)cc3)nc2c1 [compound 23, 2-(4-adamantan-1-yl-phenoxymethyl)-benzoxazole-5-carboxylic acid (2-dimethylamino-ethyl)-amide] | 8.59 | – |
| O=C(NCc1ccco1)c1ccc2nc(COc3ccc(C45CC6CC(CC(C6)C4)C5)cc3)oc2c1 [compound 27] | 13.26 | – |
| O=C(NCc1ccco1)c1ccc2nc(COc3ccc(Cl)cc3Cl)oc2c1 [compound 28, 2-(2,4-dichloro-phenoxymethyl)-benzoxazole-6-carboxylic acid (furan-2-ylmethyl)-amide] | −8.07 | – |
| NC(=O)c1ccc2nc(COc3ccc(C45CC6CC(CC(C6)C4)C5)cc3)[nH]c2c1 [compound 29, 2-(4-adamantan-1-yl-phenoxymethyl)-3H-benzoimidazole-5-carboxylic acid amide] | −13.38 | DGAT (% inhibition in 5 μM) [1]: −1.8% |
| CN(C)CCNC(=O)c1ccc2[nH]c(COc3ccc(C45CC6CC(CC(C6)C4)C5)cc3)nc2c1 [compound 32, 2-(4-adamantan-1-yl-phenoxymethyl)-1H-benzoimidazole-5-carboxylic acid (2-dimethylamino-ethyl)-amide] | −3.08 | – |
| O=C(NCCCn1ccnc1)c1ccc2[nH]c(COc3ccc(C45CC6CC(CC(C6)C4)C5)cc3)nc2c1 [compound 33, 2-(4-adamantan-1-yl-phenoxymethyl)-1H-benzoimidazole-5-carboxylic acid (3-imidazol-1-yl-propyl)-amide] | 16.99 | – |
| NNC(=O)c1ccc2[nH]c(COc3ccc(Cl)cc3Cl)nc2c1 [compound 34, 2-(2,4-dichloro-phenoxymethyl)-1H-benzoimidazole-5-carboxylic acid hydrazide] | 6.74 | – |
